From US6855705B1, “11-O-methylgeldanamycin compounds” (Kosan Biosciences, Inc., priority 2003, dated 2005)
Read-outs that look alike come from different tables or passages of the source.

What was measured:
Hsp90 = Hsp90 (Homo sapiens, UniProt P07900); test: Hsp90 binding (filter binding assay)
SKBr3 cells = test: Cytotoxicity against SKBr3 cells (CellTiter-Glo, 72 h); details: Homo sapiens, SK-BR-3, 72 h, read-out: Cytotoxicity against SKBr3 Cells (IC50, nM)
Method: Cytotoxicity was determined with SKBr3 cells (ATCC HTB-30), a breast cancer cell line. […] Cells were plated into 96-well microtiter back plates at 4,000 cells per 50 μL per well, overnight. Serial 10× dilutions of test compound (10 μM to 0.1 μM) in cell culture media were prepared with a Biomek 2000 apparatus, using the protocols of deeper-1000 μL, media and deeper-1000 μL-dilution. 50 μL of each dilution was added to wells containing cells. Each compound or control (medium only) was tested in duplicate. For each assay, the wells contained a final volume of 100 μL (50 μL of cells and 50 μL of compound dilution). After incubating for 72 h, the plates were let stand at room temperature for 30 min. CellTiter-Glo Luminescent Reagent (Promega #G7573) (100 μL) was added to each well. The well contents were mixed for 5 min and the plates were kept at room temperature for another 30 min. Luminescence was recorded using a Wallac VICTOR^2 Multilabel Counter (PerkinElmer) and IC50 values were determined using Kaleidagraph software (Synergy Software).

SKOV-3 = test: Cytotoxicity, SKOV-3; details: Homo sapiens, SK-OV-3, read-out: Compound Cytotoxicity (IC50, nM)
CCRF-CEM/VP-16 = test: Cytotoxicity, CCRF-CEM/VP-16; details: Homo sapiens, read-out: Compound Cytotoxicity (IC50, nM)
CCRF-CEM/taxol = test: Cytotoxicity, CCRF-CEM/taxol; details: Homo sapiens, read-out: Compound Cytotoxicity (IC50, nM)
MCF-7 = test: Cytotoxicity, MCF-7; details: Homo sapiens, MCF7, read-out: Compound Cytotoxicity (IC50, nM)
CCRF-CEM = test: Cytotoxicity, CCRF-CEM; details: Homo sapiens, read-out: Compound Cytotoxicity (IC50, nM)
CCRF-CEM/VBL = test: Cytotoxicity, CCRF-CEM/VBL; details: Homo sapiens, read-out: Compound Cytotoxicity (IC50, nM)
A-549 = test: Cytotoxicity, A-549; details: Homo sapiens, A549, read-out: Compound Cytotoxicity (IC50, nM)
HL-60/MX2 = test: Cytotoxicity, HL-60/MX2; details: Homo sapiens, HL60/MX2, read-out: Compound Cytotoxicity (IC50, nM)
[1] = filter binding assay, read-out: Hsp90 Binding (Kd)

| SMILES | Kd (Hsp90) | IC50 (SKBr3 cells) | IC50 (SKOV-3) | IC50 (CCRF-CEM/VP-16) | IC50 (CCRF-CEM/taxol) | IC50 (MCF-7) | IC50 (CCRF-CEM) | IC50 (CCRF-CEM/VBL) | IC50 (A-549) | IC50 (HL-60/MX2) | Kd (Hsp90; [1]) |
| --- | --- | --- | --- | --- | --- | --- | --- | --- | --- | --- | --- |
| CO[C@H]1[C@@H](OC)C[C@H](C)CC2=C(N3CCC3)C(=O)C=C(NC(=O)/C(C)=C/C=C\[C@H](OC)[C@@H](OC(N)=O)/C(C)=C/[C@@H]1C)C2=O [Compound I-a, 11-O-methyl-17-(1-azetidinyl)-17-demethoxygeldanamycin] | 4000 nM | 24 nM | 110 nM | 1400 nM | 2500 nM | 63 nM | 420 nM | 2500 nM | 29 nM | 600 nM |  |
| CO[C@H]1[C@@H](OC)C[C@H](C)CC2=C(NCCN(C)C)C(=O)C=C(NC(=O)/C(C)=C/C=C\[C@H](OC)[C@@H](OC(N)=O)/C(C)=C/[C@@H]1C)C2=O [Compound I-b, 11-O-methyl-17-(2-dimethylaminoethyl)amino-17-demethoxy-geldanamycin] |  | 12 nM | 43 nM | 65 nM | 390 nM | 50 nM | 58 nM | 960 nM | 23 nM | 62 nM | 800 nM |
| CO[C@H]1[C@@H](OC)C[C@H](C)CC2=C(NCCF)C(=O)C=C(NC(=O)/C(C)=C/C=C\[C@H](OC)[C@@H](OC(N)=O)/C(C)=C/[C@@H]1C)C2=O [Compound I-c, 11-O-methyl-17-(2-fluoroethyl)amino-17-demethoxygeldana-mycin] | 2300 nM | 250 nM | 460 nM | 2500 nM | 2700 nM | 58 nM | 960 nM | 2500 nM | 67 nM | 440 nM |  |
| CO[C@H]1[C@@H](OC)C[C@H](C)CC2=C(NCCN3CC3)C(=O)C=C(NC(=O)/C(C)=C/C=C\[C@H](OC)[C@@H](OC(N)=O)/C(C)=C/[C@@H]1C)C2=O [Compound I-d, 11-O-methyl-17-(2-(1-aziridinyl)ethyl)amino-17-demethoxygelda-namycin] | 2100 nM | 36 nM |  |  |  |  |  |  |  |  |  |
| COC1=C2C[C@@H](C)C[C@H](OC)[C@H](OC)[C@@H](C)/C=C(\C)[C@H](OC(N)=O)[C@@H](OC)/C=C\C=C(/C)C(=O)NC(=CC1=O)C2=O [Compound I-e, 11-O-methyl-geldanamycin] |  | 9.1 nM |  |  |  |  |  |  |  |  | 490 nM |
| CO[C@H]1[C@@H](OC)C[C@H](C)CC2=C(N)C(=O)C=C(NC(=O)/C(C)=C/C=C\[C@H](OC)[C@@H](OC(N)=O)/C(C)=C/[C@@H]1C)C2=O [Compound I-f] |  | 84 nM | 200 nM | 530 nM | 850 nM | 350 nM | 250 nM | 2500 nM | 37 nM | 930 nM | 320 nM |
| C=CCNC1=C2C[C@@H](C)C[C@H](OC)[C@H](OC)[C@@H](C)/C=C(\C)[C@H](OC(N)=O)[C@@H](OC)/C=C\C=C(/C)C(=O)NC(=CC1=O)C2=O [Compound I-g, 11-O-methyl-17-allylamino-17-demethoxygeldanamycin] |  | 280 nM | 1300 nM | 4000 nM | 3500 nM | 760 nM | 2500 nM | > 5000 nM | 360 nM | 3000 nM | 2800 nM |
| CO[C@H]1[C@@H](OC)C[C@H](C)CC2=C(NCCc3c[nH]cn3)C(=O)C=C(NC(=O)/C(C)=C/C=C\[C@H](OC)[C@@H](OC(N)=O)/C(C)=C/[C@@H]1C)C2=O [Compound I-h, 11-O-methyl-17-(2-(4-imidazolyl)ethyl)amino-17-demethoxy-geldanamycin] |  | 60 nM | 320 nM | 2500 nM | 3000 nM | 160 nM | 510 nM | > 5000 nM | 420 nM | 2500 nM | 2000 nM |
| CO[C@H]1[C@@H](OC)C[C@H](C)CC2=C(NCCN3CCC3)C(=O)C=C(NC(=O)/C(C)=C/C=C\[C@H](OC)[C@@H](OC(N)=O)/C(C)=C/[C@@H]1C)C2=O [Compound I-i, 11-O-methyl-17-(2-(1-azetidinyl)ethyl)amino 17-demethoxy-geldanamycin] |  | 130 nM | 65 nM | 140 nM | 510 nM | 51 nM | 85 nM | 2500 nM | 26 nM | 110 nM | 960 nM |
| CO[C@H]1[C@@H](OC)C[C@H](C)CC2=C(NCCN3CCCC3)C(=O)C=C(NC(=O)/C(C)=C/C=C\[C@H](OC)[C@@H](OC(N)=O)/C(C)=C/[C@@H]1C)C2=O [Compound I-j, 11-O-methyl-17-(2-(1-pyrrolidinyl)ethyl)amino-17-demethoxygeldanamycin] |  | 160 nM | 69 nM | 170 nM | 520 nM | 76 nM | 160 nM | 2500 nM | 62 nM | 98 nM | 960 nM |
| COC1=C2C[C@@H](C)C[C@H](OC)[C@H](O)[C@@H](C)/C=C(\C)[C@H](OC(N)=O)[C@@H](OC)/C=C\C=C(/C)C(=O)NC(=CC1=O)C2=O [Geldanamycin] |  | 23 nM |  |  |  |  |  |  |  |  |  |
